Results on 21 compounds are retold here after ChEMBL document CHEMBL3046786, “Synthesis of piperazinyl benzothiazole/benzoxazole derivatives coupled with 1,3,4-oxadiazole-2-thiol: novel hybrid heterocycles as anticancer agents” (Med Chem Res, 2013).

Structures are written as SMILES.

What all share (assay type): functional, cell-based
One test concerns HeLa. Put plainly: Anticancer activity against Homo sapiens (human) HeLa cells assessed as inhibition of cell viability after 72 hr by MTT assay.
Another test deals with HepG2. The experiment in a line: Anticancer activity against Homo sapiens (human) HepG2 cells assessed as inhibition of cell viability after 72 hr by MTT assay. The conditions noted are these: HepG2, 72 h.
The test system of another test is A-431. Put plainly: Anticancer activity against Homo sapiens (human) A431 cells assessed as inhibition of cell viability after 72 hr by MTT assay. To be noted: A-431, 72 h. (In general: Formazan colour is commonly taken as a measure of viable cells.)
The subject of another test is MCF7. The experiment in a line: Anticancer activity against Homo sapiens (human) MCF7 cells assessed as inhibition of cell viability after 72 hr by MTT assay. To be noted: MCF7, 72 h.
For the next test, the system named is A549. The experiment in a line: Anticancer activity against Homo sapiens (human) A549 cells assessed as inhibition of cell viability after 72 hr by MTT assay. The conditions noted are these: A549, 72 h.

Take `c1ccc(-c2nnc(SCCCN3CCN(c4nc5ccccc5s4)CC3)o2)cc1`: the IC50 in the test with HeLa was found to be 229 µM; with HepG2, 217 µM; in the test with A-431 it was 93.4 µM; with MCF7, 76.9 µM; with A549, 257 µM.
On to `O=C(NCc1nnc(SCCCN2CCN(c3nc4ccccc4s3)CC2)o1)c1ccccc1`, for which the IC50 is 78.1 µM in the test on HeLa; 325 µM in the test with HepG2; 55.9 µM in the test on A-431; 39 µM with MCF7; 88.7 µM in the test with A549.
Take `Fc1ccc(-c2nnc(SCCCN3CCN(c4nc5ccccc5o4)CC3)o2)cc1`: the IC50 came out at 196 µM in the test with HeLa; 83.8 µM in the test with HepG2; 136 µM in the test with A-431; 52.3 µM with MCF7; 75.7 µM in the test with A549.
Consider `Brc1ccc(-c2nnc(SCCCN3CCN(c4nc5ccccc5o4)CC3)o2)cc1`, for which the IC50 with HeLa stood at 187 µM; in the test on HepG2, 67.5 µM; with A-431, 57.8 µM; with MCF7 it was 115 µM; in the test on A549, 123 µM.
As for `CC(C)(C)Oc1ccc(-c2nnc(SCCCN3CCN(c4nc5ccccc5o4)CC3)o2)cc1`, the IC50 is 269 µM in the test on HeLa; 121 µM in the test with HepG2; 65.8 µM in the test with A-431; 94.9 µM in the test on MCF7; 263 µM with A549.
The like results for `Oc1ccc(-c2nnc(SCCCN3CCN(c4nc5ccccc5o4)CC3)o2)cc1` were, in that order, 99.5 µM, 502 µM, 116 µM, 260 µM and 181 µM.
Regarding `c1ccc(-c2nnc(SCCCN3CCN(c4nc5ccccc5o4)CC3)o2)cc1`, the half-inhibitory concentration (IC50) with HeLa is 67 µM; in the test on HepG2, 102 µM; with A-431, 57.6 µM; with MCF7 it was 117 µM; in the test on A549, 108 µM.
The like results for `O=C(NCc1nnc(SCCCN2CCN(c3nc4ccccc4o3)CC2)o1)c1ccccc1` were, in that order, 63.9 µM, 88.9 µM, 36.9 µM, 52.7 µM and 102 µM.
For the compound `COc1ccc(-c2nnc(SCCCN3CCN(c4nc5ccccc5s4)CC3)o2)cc1`, the IC50 in the test on HeLa came out at 165 µM; in the test on HepG2, 134 µM; with A-431, 56.2 µM; in the test on MCF7, 171 µM; with A549 it was 90.3 µM.
`O=[N+]([O-])c1ccc(-c2nnc(SCCCN3CCN(c4nc5ccccc5s4)CC3)o2)cc1`: the IC50 with HeLa was 97.8 µM; in the test on HepG2 it was 93.3 µM; in the test on A-431 it was 46.5 µM; with MCF7 it was 118 µM; in the test with A549, 96.6 µM.
The like results for `Cc1ccc(-c2nnc(SCCCN3CCN(c4nc5ccccc5s4)CC3)o2)cc1` were, in that order, 179 µM, 96.7 µM, 61.6 µM, 107 µM and 53.9 µM.
For `Clc1ccc(-c2nnc(SCCCN3CCN(c4nc5ccccc5s4)CC3)o2)cc1`, the IC50 in the test on HeLa worked out at 177 µM; with HepG2 it was 87.7 µM; with A-431 it was 69.2 µM; in the test with MCF7, 116 µM; in the test on A549, 110 µM.
As for `Fc1ccc(-c2nnc(SCCCN3CCN(c4nc5ccccc5s4)CC3)o2)cc1`, the IC50 in the test with HeLa is 134 µM; in the test on HepG2, 234 µM; in the test with A-431, 67 µM; in the test on MCF7 it was 84.1 µM; with A549, 71.7 µM.
The like results for `Brc1ccc(-c2nnc(SCCCN3CCN(c4nc5ccccc5s4)CC3)o2)cc1` were, in that order, 243 µM, 103 µM, 51.6 µM, 96.3 µM and 62.5 µM.
Consider `CC(C)(C)Oc1ccc(-c2nnc(SCCCN3CCN(c4nc5ccccc5s4)CC3)o2)cc1`, for which the IC50 with HeLa was found to be 217 µM; in the test with HepG2 it was 202 µM; in the test with A-431, 67 µM; in the test with MCF7, 89.3 µM; in the test on A549, 71.6 µM.
With `Oc1ccc(-c2nnc(SCCCN3CCN(c4nc5ccccc5s4)CC3)o2)cc1`, the IC50 with HeLa worked out at 139 µM; in the test on HepG2 it was 364 µM; with A-431, 54.7 µM; in the test on MCF7, 81.9 µM; in the test with A549, 62.1 µM.
For `COc1ccc(-c2nnc(SCCCN3CCN(c4nc5ccccc5o4)CC3)o2)cc1`, in that order: 210 µM, 66.1 µM, 52.7 µM, 52.8 µM and 93.5 µM.
As for `O=[N+]([O-])c1ccc(-c2nnc(SCCCN3CCN(c4nc5ccccc5o4)CC3)o2)cc1`, the IC50 is 114 µM in the test on HeLa; 67.2 µM in the test on HepG2; 46.9 µM in the test on A-431; 90.1 µM in the test on MCF7; 90.8 µM in the test on A549.
The like results for `Cc1ccc(-c2nnc(SCCCN3CCN(c4nc5ccccc5o4)CC3)o2)cc1` were, in that order, 133 µM, 154 µM, 100 µM, 60.4 µM and 106 µM.
For `Clc1ccc(-c2nnc(SCCCN3CCN(c4nc5ccccc5o4)CC3)o2)cc1`, the IC50 in the test on HeLa was determined as 101 µM; in the test with HepG2, 121 µM; in the test on A-431 it was 89.6 µM; with MCF7, 99.7 µM; with A549 it was 127 µM.
Consider `COc1cc(/C=C/C(=O)CC(=O)/C=C/c2ccc(O)c(OC)c2)ccc1O` [CURCUMIN], for which the IC50 came out at 16 µM in the test with HepG2, 22 µM in the test on A-431, 26 µM in the test with MCF7 and 22 µM in the test with A549.

One may read the IC50 as the concentration that inhibits the measured activity by half.
